# Experimental data from patent US6103709A (priority 1998, dated 2000).
# Tests used:
# [1] = tested on: chloride channels in ROS 17/2.8 cells; conditions: 1 nM HL in the bath; 1α,25(OH)2 D3 5 nM or less; listed as 1β,25(OH)2 D3
# Protocol: In each case, at least a 3-min period was allowed after the addition of the analog to the bath for currents to reach a stable amplitude value. […] Anion currents were isolated from inward Ba^2+ currents after blockade of Ca^2+ channels with 100 μM Cd^2+.
# [2] = tested on: MAP-kinase p42^mapk in NB4 cells; test: MAP-kinase activation (p42mapk phosphorylation) in NB4 cells; format: cell-based, human
# Protocol: In order to determine whether MAP-kinase phosphorylation is specific and is altered by 1α,25(OH)2 D3, the time-dependent effects of 1α,25(OH)2 D3 on p42^mapk phosphorylation was examined using human acute promyelocytic leukemia cells (NB4). In this study, the NB4 cells, cultured in 10% charcoal-stripped fetal calf serum (FCS) medium, were treated with 1α,25(OH)2 D3 at 10^-8 M for various time periods. Cells were then extracted and the phosphorylated MAP-kinase was immunoprecipitated with anti-phosphotyrosine antibody and further analyzed by Western blot using the antibodies against p42^mapk.
# The lysate was further processed for anti-phosphotyrosine immunoprecipitation. […] After transferring the proteins to the PVDF membrane, the membrane was further incubated with primary anti-p42^mapk antibodies that were (+) or were not (-) pre-exposed to MAP-kinase peptide.
# This example describes assays used for measurement of MAP-kinase activity in NB4 cells.
# Cell culture of NB4 cells
# The cell line is characterized by a translocation involving chromosomes 15 and 17, which is typical of the classical form of APL-M3 in the French-American-British [FAB] classification. NB4 cells were cultured in DMEM/F12 medium with 10% FCS at 5% CO2 balanced air and were routinely passaged as suspension cultures and only passages 8 to 20 were used for each assay.
# Immunoprecipitation of Tyrosine-Phosphorylated Proteins
# NB4 cells were cultured in 60-mm diameter dishes and treated with 1,25(OH)2 D3 or analogs in 4 ml of DMEM/F12 containing 10% charcoal-stripped FCS.
# Insoluble material was removed in a microcentrifuge at 14,000 rpm for 10 min. Protein concentration was determined with a protein assay kit (Bio-Rad Lab, Hercules, Calif.). For immunoprecipitation, the supernatant was incubated with bead-conjugated monoclonal anti-phosphotyrosine antibody overnight at 4° C. The immunoprecipitates containing the tyrosine-phosphorylated proteins were washed four times with freshly-prepared RIPA buffer and further eluted with 2× Laemmli gel buffer.
# At this point, the samples were either stored at -20° C. for further use or processed via Western blots. Equal loading of MAP-kinase protein was determined by running the Western blots using polyclonal anti-p42^mapk antibody. For this purpose, samples were aliquoted from each cell extract before immunoprecipitation.
# SDS Gel Electrophoresis and Western blot
# The membrane was further immunoblotted using a rabbit anti-p42^mapk polyclonal antibody overnight at 4° C. followed by incubation with secondary horseradish peroxidase-conjugated mouse anti-rabbit antibody for 1 hr at 25° C. The phosphorylated MAP-kinase bands were then visualized by enhanced chemiluminescence (ECL). A Ultrascan LX Laser Densitometer (LKB, Bromma, Sweden) scanned the density of the immuno-phosphoprotein bands. The results were normalized by protein loading and further plotted as percent of control of the band density.
# rapid responses (VDRmem) = test: Antagonist function (summary classification); conditions: Yes/No, Tables 1 and 6
# Source text: (§1) Table 6 identifies biological properties, such as genomic response, rapid response, agonist or antagonist function, binding of the analog to the vitamin binding protein (expressed as RCI), binding to the nuclear 1α,25(OH)2 D3 receptor (expressed as RCI) rapid response (expressed as % transcaltachia the rapid hormonal stimulation of intestinal calcium absorption) the classic vitamin D responses such as intestinal Ca^2+ absorption (ICA) and bone Ca^2+ mobilizing activity (BCM) determined in vivo in a vitamin D-deficient chick, and cell differentiation (expressed as % ED50), an assessment of the ability to promote the nuclear response of cell differentiation.
# HL-60 cells = test: Cell differentiation assay (NBT reduction); format: cell-based
# Source text: The cell differentiation assay is used for a determination of relative potency of the analog vis-a-vis the potency of the reference compound 1α,25(OH)2 D3 in promoting the cell differentiation or inhibiting the cell proliferation. The results of the cell differentiation assay are expressed as the effective dose-50 (ED-50) which is defined as 50% of the concentration required for a maximal response.
# Cell Differentiation Assay
# After 4 days of culture in a humidified atmosphere of 5% CO2 in air at 37° C., the dishes were shaken to loosen any adherent cells. All cells were then assayed for differentiation by NBT reduction assay and for proliferation by [^3 H]thymidine incorporation.
# Superoxide production was assayed by nitro blue tetrazolium-reducing activity as follows.
# The percentage of cells containing black formazan deposits was determined using a hemacytometer.
# VDRmem = test: Rapid response (summary classification); conditions: Yes/No, Tables 1 and 6
# Source text: as §1
# VDRnuc = test: Genomic response (summary classification); conditions: Yes/No, Tables 1 and 6
# Source text: as §1
# [3] = target: T1, nuclear receptor for 1α,25(OH)2 D3 [VDRnuc] (Gallus gallus, UniProt O42392); test: Relative Competitive Index (steroid competition) assay, nuclear receptor VDRnuc; format: binding, chick; set-up: key to Nuclear 1α,25-D Receptor (RCI): % relative to 1α,25(OH)2D3 binding (RCI = 100%); conditions: for Nuclear 1α,25-D Receptor (RCI): RCI of 1α,25(OH)2 D3 = 100
# T1 construct: VDRnuc receptor preparation from chick intestine mucosa; from tissue; host or cells: chick intestinal mucosa
# T1 sequence (O42392 1-451): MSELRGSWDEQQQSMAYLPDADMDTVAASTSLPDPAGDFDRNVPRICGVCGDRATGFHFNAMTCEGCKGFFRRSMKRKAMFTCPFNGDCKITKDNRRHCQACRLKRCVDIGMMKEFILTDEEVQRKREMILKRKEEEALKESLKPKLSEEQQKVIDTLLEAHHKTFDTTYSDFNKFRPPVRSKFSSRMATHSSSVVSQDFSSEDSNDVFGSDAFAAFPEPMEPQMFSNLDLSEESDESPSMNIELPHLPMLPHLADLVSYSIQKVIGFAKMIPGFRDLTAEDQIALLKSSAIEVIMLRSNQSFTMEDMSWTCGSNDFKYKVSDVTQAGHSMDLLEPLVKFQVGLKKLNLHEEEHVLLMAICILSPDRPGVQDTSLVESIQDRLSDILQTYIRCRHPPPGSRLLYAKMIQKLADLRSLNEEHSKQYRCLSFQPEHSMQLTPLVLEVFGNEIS
# Protocol: The ability of analogs to mediate genomic responses are directly determined by the ability of the analog in question to bind to the nuclear receptor for 1α,25(OH)2 D3 [VDRnuc ]. This ability is detected by the assay measuring Relative Competitive Index (RCI).
# The assay is based upon the principles of a steroid competition assay. A fixed amount of [^3 H]1α,25(OH)2 D3 is mixed with increasing amounts of competitive analogs or the natural hormone, 1α,25(OH)2 D3, and incubated with a VDRnuc receptor preparation from chick intestine mucosa.
# Ligand Receptor Competition Assay
# This example describes a ligand receptor competitive assay used for determination of an analog's relative ability to bind to VDRnuc expressed as relative competitive index (RCI).
# The relative affinity of nonradioactive 1α,25(OH)2 D3 and each analog to compete with [^3 H]1α,25(OH)2 D3 for binding to the VDRnuc of NB4 cells was carried out in vitro. The NB4 cells were collected from a fast growing stage and the cellular VDRnuc of 1α,25(OH)2 D3 were extracted from KTED buffer containing 10 mM Tris-HCl, pH 7.4, 300 mM KCl, 1 mM EDTA and 5 mM DTT. After sonication, the cell extract was further centrifuged at 500× g for 10 min. The supernatant was collected for use in a ligand-receptor binding assay.
# In this assay, increasing concentrations (10^-10 to 10^-6 M) of nonradioactive 1α,25(OH)2 D3 or the tested analogs were incubated with NB4 cell extracts in the presence of a fixed saturating amount of 1 pmole of [^3 H]1α,25(OH)2 D3. The reciprocal of the percentage of maximal binding of [^3 H]1α,25(OH)2 D3 was then calculated and plotted as a function of the relative analog concentration versus [^3 H]1α,25(OH)2 D3. […] The competitive index value for each analog is then normalized to the competitive index value of the […], thereby generating the value of Relative Competitive Index (RCI) where the RCI for 1α,25(OH)2 D3 is defined as 100%.
# The full description of the assay is found in Methods in Enzymology: Vitamins and Co-Enzymes, Vol. 67, 494-500 , Academic Press, NY(1980); Biochem. Biophys. Res. Commun., 91: 827-834 (1979); and Endocrinology, 139(2): 457-465 (1998).
# [4] = tested on: intestinal Ca2+ transport in perfused chick duodena (transcaltachia); test: Transcaltachia assay (rapid stimulation of 45Ca2+ transport in perfused duodena); conditions: 1α,25(OH)2 D3 = 100
# Protocol: Duodenal loops from normal, vitamin D-replete chicks were lumenally perfused with ^45 Ca^2+ (5 uCi/ml of buffer). To establish basal transport rates, celiac artery of controls were perfused with control medium for the first 20 min. The duodena were then either re-exposed to control medium containing the vehicle ethanol (0.005%, final concentration) through the celiac artery, or vascularly perfused with 300 pM or 650 pM agonist analogs JM or JN or with 650 pM of a control reference compound 1α,25(OH)2 D3. The venous effluent was collected at 2 min intervals for liquid scintillation spectrophotometry of the ^45 Ca^2+. […] Values represent mean ±SEM for n=4 in each group.
# The data shown in FIG. 13 are the mean ±SEM from 4-5 duodena. […] Open circles represent the negative control receiving no treatment with 1α,25(OH)2 D3 or analog. […] Data represent the ratio of treated to basal values ±SEM extracted from a time-course plot (as in panel A) at 32 minutes.
# This example describes the assay used for testing rapid response transcaltachia described in J. Biol. Chem, 268: 13811-13819 (1993).
# White Leghorn cockerels (Hyline International, Lakeview, Calif.) were obtained on the day of hatch and maintained on a vitamin D-supplemented diet (1.0% calcium and 1.0% phosphorus; O. H. Kruse Grain and Milling, Ontario, Calif.) for 5-6 weeks to prepare normal vitamin D3 -replete chicks for use in the transcaltachia studies.
# Measurements of ^45 Ca^2+ transport were carried out in perfused chick duodena. Normal vitamin D-replete chicks weighing approximately 500 g were anesthetized with 0.3 ml per 100 g Chloropent (Fort Dodge, Iowa), and the duodenal loop was surgically exposed. The celiac vein and blood vessels branching off from the celiac artery were ligated before cannulation of the celiac artery itself, and vascular perfusion was immediately initiated. Both the celiac artery and vein of the duodena were perfused with modified Grey's balanced salt solution (GBSS) +0.9 mM Ca which was oxygenated with 95% O2 and 5% CO2. A basal transport rate was established by perfusion with control medium for 20 minutes after the intestinal lumen was filled with ^45 Ca^2+. The tissue was then exposed to 1α,25(OH)2 D3 or analogs or reexposed to control medium for an additional 40 minutes. The vascular perfusate was collected at 2 min intervals during the last 10 min of the basal and during the entire treatment period. Duplicate 100 μl aliquots were taken for determination of the ^45 Ca^2+ levels by liquid scintillation spectrometry.
"Nuclear 1α,25-D Receptor (RCI) [3]",Structure (SMILES),Antagonist (rapid responses (VDRmem)),Rapid Response (VDRmem),Genomic Response (VDRnuc),other results
,"C=C1/C(=C\C=C2/CCC[C@]3(C)[C@@H]([C@H](C)CCCC(C)(C)O)CC[C@@H]23)C[C@@H](O)C[C@H]1O [Analog HL, 1β,25-dihydroxyvitamin D3]",,,,"antagonism of 1α,25(OH)2 D3-stimulated chloride channel opening [1]: significantly reduced"
,CC1=C(/C=C\C2=CCC[C@]3(C)[C@@H]([C@H](C)CCCC(C)(C)O)CC[C@@H]23)C[C@@H](O)C[C@@H]1O [HF],,,,"activation of MAP-kinase versus 1α,25(OH)2 D3 ([2]; 1 minute): more than 1α,25(OH)2 D3; activation of MAP-kinase versus 1α,25(OH)2 D3 ([2]; 5 minute): only slightly less active"
25,C=C1/C(=C\C=C2/CCC[C@]3(CO)[C@@H]([C@H](C)CCCC(C)(C)O)CC[C@@H]23)C[C@@H](O)C[C@@H]1O [HS],No,Yes,Yes,"potency at promoting cell differentiation versus 1α,25(OH)2 D3 (HL-60 cells): about twenty times more potent; Binding to VDRnuc relative to 1α,25(OH)2 D3 (RCI) ([3]; 1α,25(OH)2 D3 = 100%, FIG. 8: chick intestine mucosa): 25%"
1,C=C1/C(=C\C=C2/CCC[C@]3(C)[C@@H]([C@H](C)C#Cc4cccc(C(C)(C)O)c4)CC[C@@H]23)C[C@@H](O)C[C@@H]1O [IB],No,Yes,Yes,
,CC1=C(/C=C/C2=CCC[C@]3(C)[C@@H]([C@H](C)CCCC(C)(C)O)CC[C@@H]23)C[C@@H](O)C[C@@H]1O [JB],,,,"Rapid Trans-Caltachia, relative to 1α,25(OH)2 D3 [4]: smaller than 5%"
